{"source": "patent EP1210346B1", "about": "“NEW ACTIVE MARINE ALKALOIDS” (Instituto Biomar S.A., priority 1999, dated 2001)", "key": {"[1]": {"test_system": "P-388 (suspension culture of a lymphoid neoplasm from DBA/2 mouse)", "test": "Antitumour screening, growth inhibition of P-388 cells (adapted Bergeron method)", "assay_type": "cell-based", "settings": "P388, 72 h, three days of incubation at 37°C, approximate IC50, duplicate", "description": "(§1) Cells were maintained in logarithmic phase of growth in Eagle's Minimum Essential Medium, with Earle's Balanced Salts, with 2.0 mM L-glutamine, with non-essential amino acids, without sodium bicarbonate (EMEM/neaa); supplemented with 10% Fetal Calf Serum (FCS), 10^-2 M sodium bicarbonate and 0.1 g/l penicillin-G + streptomycin sulfate.\n(§2) A screening procedure has been carried out to determine and compare the antitumour activity of these compounds, using an adapted form of the method described by Bergeron et al (Raymond J Bergeron, Paul F Cavanaugh, Jr, Steven J Kline, Robert G Hughes, Jr, Gary T Elliot and Carl W Porter. Antineoplastic and antiherpetic activity of spermidine catecholamide iron chelators. Biochem. Bioph. Res. Comm. 1984, 121, 848-854). The antitumour cells employed were P-388 (suspension culture of a lymphoid neoplasm from DBA/2 mouse), A-549 (monolayer culture of a human lung carcinoma), HT-29 (monolayer culture of a human colon carcinoma) and MEL-28 (monolayer culture of a human melanoma).\nP-388 cells were seeded into 16 mm wells at 1 x 10^4 cells per well in 1 ml aliquots of MEM SFCS containing the indicated concentration of drug. A separate set of cultures without drug was seeded as control growth to ensure that cells remained in exponential phase of growth. All determinations were carried out in duplicate. […]"}, "[2]": {"test_system": "HT-29 (monolayer culture of a human colon carcinoma)", "test": "Antitumour screening, growth inhibition of HT-29 cells (adapted Bergeron method, Crystal Violet staining)", "assay_type": "cell-based", "settings": "72 h, three days of incubation at 37°C, approximate IC50, duplicate", "description": "as §1, §2\n(§3) A-549, HT-29 and MEL-28 cells were seeded into 16 mm wells at 2 x 10^4 cells per well in 1 ml aliquots of MEM 10FCS containing the indicated concentration of drug. […] An approximately IC50 was determined by comparing the growth in wells with drug to the growth in wells control."}, "[3]": {"test": "Stability in acid and basic media"}, "[4]": {"test_system": "MEL-28 (monolayer culture of a human melanoma)", "test": "Antitumour screening, growth inhibition of MEL-28 cells (adapted Bergeron method, Crystal Violet staining)", "assay_type": "cell-based", "settings": "SK-MEL-28, 72 h, three days of incubation at 37°C, approximate IC50, duplicate", "description": "as §1, §2, §3"}, "[5]": {"test_system": "A-549 (monolayer culture of a human lung carcinoma)", "test": "Antitumour screening, growth inhibition of A-549 cells (adapted Bergeron method, Crystal Violet staining)", "assay_type": "cell-based", "settings": "A549, 72 h, three days of incubation at 37°C, approximate IC50, duplicate", "description": "as §1, §2, §3"}, "[6]": {"test_system": "Gram-positive bacteria (Staphylococcus and others)", "test": "Activity against Gram-positive bacteria", "assay_type": "cell-based"}}}
{"smiles": "COC1=C(C)C(=O)C2=C(C1=O)C1C3CC4=C(C(=O)C(OC)=C(C)C4=O)C(COC(C)=O)N3C(O)C(C2)N1C", "note": "(stereo not drawn) [Jorumycin]", "values": [{"measurement": "IC50", "setting": "[1]", "result": 20, "unit": "nM"}, {"measurement": "IC50", "setting": "[2]", "result": 20, "unit": "nM"}, {"measurement": "stability", "setting": "[3]", "result": "highly unstable"}, {"measurement": "IC50", "setting": "[4]", "result": 20, "unit": "nM"}, {"measurement": "IC50", "setting": "[5]", "result": 20, "unit": "nM"}, {"measurement": "activity against Gram-positive bacteria", "setting": "[6]", "result": "showed also activity"}]}
